One test relates to S. epidermidis. The settings on record: planktonic, 18 hours.
In a further test the test system is Candida albicans SC5314. Description: In vivo subcutaneous C. albicans biofilm model in rats (polyurethane catheters, CFU). The protocol:
In a next step we also investigated a potential inhibitory role of interferor peptide F9 during in vivo C. albicans biofilm development. We used the in vivo subcutaneous C. albicans biofilm model in rats (i.e. in vivo biofilms formed inside polyurethane triple lumen catheter pieces) as further outlined in the materials and methods section. Only one concentration of peptide F9 (i.e. 50 μM) was tested in the experimental conditions. The peptide was administrated ex vivo, during initial attachment of Candida to the substrate (90 min, 37° C.). Afterwards, the catheters were washed and implanted subcutaneously in rats. Biofilms were studied six days post implantation and quantified by CFUs. […]
Polyurethane triple lumen intravenous catheters (2.4 mm diameter) cut into segments of 1 cm (Arrow International Reading, USA) were incubated overnight in FBS at 37° C. […] The skin was disinfected and catheter fragments were removed from under the subcutaneous tissue, washed twice with 1× PBS and quantified or visualized.The effect of peptides promoting the aggregation of Als3p during Candida biofilm development in vivo was characterized, as well. […]
The amount of fungal biofilm biomass formed inside the catheter lumen of in vitro and in vivo explanted catheters was determined by colony forming units (CFU). […] CFUs were counted after two days at 37° C.

Where two headings read alike, the source gives them in different places. No end group written: not given here.

Experimental for S. epidermidis: Bacteria were grown in a shaking incubator at 37° C. and 160rpm in 50 ml BHI , using individual colonies retrieved from a fresh overnight TSA-sheep blood plate. The cultures were grown to a density of approximately 1×10^8cells/ml and then diluted to 5×10^5 cells/ml in CAMHB (Mc Farland 0.5). Each well contained 100p.I (50p.I of peptide containing MHB plus 50 μl inoculum). The final cell density was 1×10^5 to 5×10^5/ml. After addition of the cell suspension, plates were incubated at 37° C. for 18 to 24 hours. The optical density at 590 nm (OD590) of each well was measured after 5 seconds of shaking the plate using Perkin Elmer spectrophotometer (1420 Multilabel Counter Vicotr 3). […] Each well, where no growth was observed, was also plated on TSA-sheep blood agar plates, incubated at 37° C. overnight and visually inspected.
A microbroth dilution method was used with twofold serial dilutions in CAMHB (according to EMEA guidelines) was used for screening of peptide activity, with concentrations ranging from 0.3 μg/mIto 200 μg/ml.

On to RILLGLIRRGSRILLGLIRR [C30], for which the MIC entry against S. epidermidis (S101) is “S101: 1.5 μg/ml”; with S. epidermidis (S103) it was “S103: 1.5 μg/ml”; in the test with S. epidermidis (S104), “S104: 1.5 μg/ml”; against S. epidermidis (S109), “S109: 3 μg/ml”; in the test on S. epidermidis (S. epidermidis ATCC 13228), “S. epidermidis ATCC 13228: 1.5 μg/ml”.

Consider RKLLFNLGSRNGIVIVATTR [F9], for which the “mean CFUs ±SD obtained per catheter fragment” value in the test on Candida albicans SC5314 (50 μM ex vivo during adhesion (90 min, 37° C.), catheters implanted subcutaneously in rats, six days post implantation, control 3.69 ±0.42) was 2.25 ±1.08 login CFU/catheter fragment. In the test on Candida albicans SC5314 (four out of 20 catheters, 50 μM, rats, six days), the “peptide-treated catheters containing less than 2.0 log10 CFU/catheter fragment” value is 20%.
